The structures appear in SMILES notation.

The assay concerns SARS-CoV-2. Kind of assay: microbe, parasite or virus in culture. Particulars: Severe acute respiratory syndrome coronavirus 2, Vero C1008, 48 h.

In turn, `Cc1c(C(=O)N2CCOc3ccc(-c4ccc(N)nc4)cc3C2)ccc(S(C)(=O)=O)c1F` registered an IC50 above 20 µM. For the same compound, the IC50 (read-out: pIC50 (converted)) was above 20 µM.

Compound `O=c1c(-c2ccc(O)cc2)coc2cc(O)ccc12` [DAIDZEIN] had an IC50 above 20 µM. Where the note is “read-out: pIC50 (converted)”, the IC50 was above 20 µM.

In turn, `CCCCCCC1C(=O)O[C@H](C)[C@H](NC(=O)c2cccc(NC=O)c2O)C(=O)O[C@@H](C)[C@@H]1OC(=O)CC(C)C` (some centres not stated) displayed an IC50 above 20 µM. For the setting “read-out: pIC50 (converted)”, the IC50 was above 20 µM.

`COc1ccc(N(C)c2nc(C)nc3ccccc23)cc1` [VERUBULIN]: the IC50 was above 20 µM. Moreover, where the note is “read-out: pIC50 (converted)”, the IC50 is above 20 µM.

Take `C#C[C@@]1(O)CCC2C3CCc4cc(OC)ccc4C3CCC21C` (some centres not stated): the IC50 is above 20 µM. Besides, the IC50 (read-out: pIC50 (converted)) is above 20 µM.

As to `CC(C)(C)c1cc(NC(=O)Nc2ccc(-c3cn4c(n3)sc3cc(OCCN5CCOCC5)ccc34)cc2)no1` [QUIZARTINIB], the IC50 is above 20 µM. Also, the IC50 (read-out: pIC50 (converted)) was above 20 µM.

As to `CC(C)NCC(O)COc1ccc(CC(N)=O)cc1` (racemic) [ATENOLOL], the IC50 is above 20 µM. The IC50 (read-out: pIC50 (converted)) is above 20 µM.

For the compound `CCOC(=O)c1ccc(C#Cc2ccc3c(c2)C(C)(C)CCS3)nc1` [TAZAROTENE], the IC50 is above 20 µM. Moreover, under “read-out: pIC50 (converted)”, the IC50 was above 20 µM.

As to `O=C(O)Cc1c[nH]cn1` [IMIDAZOLE ACETIC ACID], the IC50 is above 20 µM. Also, the IC50 (read-out: pIC50 (converted)) was above 20 µM.

Consider `C=CC[N@@+]12CC[C@]34c5ccccc5N5/C=C6\C7N(/C=C(/C53)[C@@H](C[C@@H]41)/C(=C/CO)C2)c1ccccc1[C@@]71CC[N@@+]2(CC=C)C/C(=C\CO)[C@@H]6C[C@@H]12` (some centres not stated), for which the IC50 is above 20 µM. In addition, the IC50 (read-out: pIC50 (converted)) is above 20 µM.

Compound `Cc1c(-c2c(F)cc(C(N)=O)c3[nH]c4c(c23)CC[C@H](C(C)(C)O)C4)cccc1-n1c(=O)c2cccc(F)c2n(C)c1=O` [BMS-986142] yielded an IC50 above 20 µM. Further, the IC50 (read-out: pIC50 (converted)) is above 20 µM.

As to `O=C(O[C@@H]1Cc2c(O)cc(O)cc2O[C@@H]1c1cc(O)c(=O)c2c(O)c(O)cc([C@H]3Oc4cc(O)cc(O)c4C[C@H]3O)c2c1)c1cc(O)c(O)c(O)c1` [THEAFLAVIN MONOGALLATES], the IC50 is above 20 µM. For the setting “read-out: pIC50 (converted)”, the IC50 is above 20 µM.

Turning to `CC(C)OC(=O)[C@@H](C)NP(=O)(OC[C@H]1O[C@@H](n2ccc(=O)[nH]c2=O)[C@](C)(O)[C@@H]1O)Oc1ccccc1` (some centres not stated), the IC50 is above 20 µM. Further, the IC50 (read-out: pIC50 (converted)) was above 20 µM.

`CC(C)(O)CC[C@@H](O)[C@](C)(O)[C@H]1CC[C@@]2(O)C3=CC(=O)[C@@H]4C[C@@H](O)[C@@H](O)C[C@]4(C)[C@H]3CC[C@]12C` [20-HYDROXYECDYSONE] had an IC50 above 20 µM. Further, the IC50 (read-out: pIC50 (converted)) was above 20 µM.

As to `O=C1CN=C(c2ccccc2Cl)c2cc([N+](=O)[O-])ccc2N1` [CLONAZEPAM], the IC50 was above 20 µM. Also, under “read-out: pIC50 (converted)”, the IC50 is above 20 µM.

The compound `Cc1onc(-c2ccccc2Cl)c1C(=O)N[C@@H]1C(=O)N2[C@@H]1SC(C)(C)[C@@H]2C(=O)O` [CLOXACILLIN] came in with an IC50 above 20 µM. Moreover, the IC50 (read-out: pIC50 (converted)) was above 20 µM.

`O=S1(=O)c2cccc3cccc(c23)N1CCCN1CCN(c2ccc(F)cc2)CC1` [FANANSERIN] registered an IC50 above 20 µM. Besides, under “read-out: pIC50 (converted)”, the IC50 is above 20 µM.

In the case of `CC1(C)CNc2cc(NC(=O)c3cccnc3NCc3ccncc3)ccc21` [MOTESANIB], the IC50 is above 20 µM. The IC50 (read-out: pIC50 (converted)) was above 20 µM.

For `NC(=O)NCCC[C@H](N)C(=O)O` [L-CITRULLINE], the IC50 is above 20 µM. Also, for the setting “read-out: pIC50 (converted)”, the IC50 was above 20 µM.

`C[C@H](CCC(=O)O)[C@H]1CC[C@H]2[C@@H]3[C@H](O)CC4C[C@H](O)CC[C@]4(C)[C@H]3CC[C@]12C` (some centres not stated) yielded an IC50 above 20 µM. Further, where the note is “read-out: pIC50 (converted)”, the IC50 was above 20 µM.

In the case of `Clc1ccc2c(c1)C(N1CCNCC1)=Nc1ccccc1O2` [AMOXAPINE], the IC50 is above 20 µM. Moreover, the IC50 (read-out: pIC50 (converted)) was above 20 µM.

The compound `Clc1ccc(OC[C@@H]2CCN2)cn1` registered an IC50 above 20 µM. Moreover, the IC50 (read-out: pIC50 (converted)) is above 20 µM.

With `CCOc1ccc(Cc2nccc3cc(OCC)c(OCC)cc23)cc1OCC` [ETHAVERINE], the IC50 is above 20 µM. The IC50 (read-out: pIC50 (converted)) was above 20 µM.

Consider `COc1cc(C)c(/C=C/C(C)=C/C=C/C(C)=C/C(=O)O)c(C)c1C` [ACITRETIN], for which the IC50 is above 20 µM. Besides, under “read-out: pIC50 (converted)”, the IC50 was above 20 µM.

In the case of `O=c1n(CC2CO2)c(=O)n(CC2CO2)c(=O)n1CC1CO1` (configuration not stated) [TEROXIRONE], the IC50 is above 20 µM. The IC50 (read-out: pIC50 (converted)) is above 20 µM.

`CCN(CC)CC(C)OC(=O)[C@H]1CCCC[C@]1(O)C1CCCCC1` (some centres not stated) had an IC50 above 20 µM. Further, under “read-out: pIC50 (converted)”, the IC50 is above 20 µM.

As for `Cc1cc(C(=O)Nc2nc3cccc(Cl)c3n2[C@@H]2CCCCN(C(=O)/C=C/CN(C)C)C2)ccn1` [NAZARTINIB], the IC50 is above 20 µM. Further, the IC50 (read-out: pIC50 (converted)) is above 20 µM.

`Cc1cc(O)cc(=O)o1` gave an IC50 above 20 µM. Under “read-out: pIC50 (converted)”, the IC50 is above 20 µM.

Turning to `Cc1nc2sccn2c(=O)c1CCN1CCC(=C(c2ccc(F)cc2)c2ccc(F)cc2)CC1` [RITANSERIN], the IC50 is above 20 µM. The IC50 (read-out: pIC50 (converted)) was above 20 µM.

The compound `CC(N)C(O)c1cccc(O)c1` (configuration not stated) came in with an IC50 above 20 µM. In addition, the IC50 (read-out: pIC50 (converted)) is above 20 µM.

`O=C(O)C[C@@H]1CCc2c1[nH]c1ccc(OCc3ccc(C4CCCC4)c(C(F)(F)F)c3)cc21` gave an IC50 above 20 µM. For the same compound, the IC50 (read-out: pIC50 (converted)) was above 20 µM.

`c1ccc2c(c1)CCc1cccc3c1C2CN1CCCCC31` (configuration not stated) [TACLAMINE] showed an IC50 above 20 µM. Also, the IC50 (read-out: pIC50 (converted)) was above 20 µM.

Regarding `Cc1c(Cn2c(C)nc3c(C(=O)O)cc(N4CCOCC4)cc32)cccc1C(F)(F)F` [GSK-2636771], the IC50 is above 20 µM. In addition, the IC50 (read-out: pIC50 (converted)) was above 20 µM.

Take `OC(c1ccc(Cl)cc1)(c1ccc(Cl)cc1)C1CC1` [PROCLONOL]: the IC50 was above 20 µM. The IC50 (read-out: pIC50 (converted)) was above 20 µM.

`CC(C)(C)C#Cc1cc(N(C(=O)[C@H]2CC[C@H](C)CC2)[C@H]2CC[C@@H](O)CC2)c(C(=O)O)s1`: the IC50 is above 20 µM. The IC50 (read-out: pIC50 (converted)) was above 20 µM.

As for `COc1ccc(Cc2cnc(N)nc2N)cc1OC` [DIAVERIDINE], the IC50 was above 20 µM. Besides, the IC50 (read-out: pIC50 (converted)) is above 20 µM.

`CCCCCCCCCC(=O)OC1(c2ccc(Cl)cc2)CCN(CCCC(=O)c2ccc(F)cc2)CC1` [HALOPERIDOL DECANOATE]: the IC50 is above 20 µM. The IC50 (read-out: pIC50 (converted)) was above 20 µM.

For `CC(O)CO` (configuration not stated) [PROPYLENE GLYCOL], the IC50 is above 20 µM. In addition, the IC50 (read-out: pIC50 (converted)) is above 20 µM.

In the case of `C[C@]12CC[C@H]3[C@@H](CC[C@@]45O[C@@H]4C(O)=C(C#N)C[C@]35C)[C@@H]1CC[C@@H]2O` [TRILOSTANE], the IC50 is above 20 µM. Further, for the setting “read-out: pIC50 (converted)”, the IC50 is above 20 µM.

Consider `C/C=C/C[C@@H](C)[C@@H](O)[C@H]1C(=O)N[C@@H](CC)C(=O)N(C)[C@H](C)C(=O)N(CC)[C@@H](C(C)C)C(=O)N[C@@H](C(C)C)C(=O)N(C)[C@@H](CC(C)C)C(=O)N[C@@H](C)C(=O)N[C@H](C)C(=O)N(C)[C@@H](CC(C)C)C(=O)N(C)[C@@H](CC(C)C)C(=O)N(C)[C@@H](C(C)C)C(=O)N1C` [ALISPORIVIR], for which the IC50 is above 20 µM. Further, under “read-out: pIC50 (converted)”, the IC50 is above 20 µM.

`CN(C)Cc1ccc(S(=O)(=O)n2ccc(/C=C/C(=O)NO)c2)cc1` [RESMINOSTAT] showed an IC50 above 20 µM. Further, the IC50 (read-out: pIC50 (converted)) is above 20 µM.

The record behind these values is ChEMBL document CHEMBL4651402, “Screening of ~5500 FDA-approved drugs and clinical candidates for anti-SARS-CoV-2 activity” (2021).
